The values below come from patent US20120231069A1, “Targeted Nanocarrier Systems for Delivery of Actives Across Biological Membranes” (Access Pharmaceuticals, Inc., priority 2011, published 2012).

In this test the test system is Diabetic Rats. The test is described as follows: Blood glucose reduction in streptozotocin-diabetic rats after oral gavage. It counts as in vivo. Conditions: diabetic female Wistar rats, oral gavage 0.5 mL of 20 IU/mL insulin. The protocol: Female Wistar rats (200 g) were housed at room temperature with 12 h light/dark cycle. All animals had ad libitum access to a standard chow diet and water except wherever indicated. The rats were allowed to acclimatize for a period of 7 days in the new environment before initiation of the experiment. After randomization into groups of 4, each rat was marked and followed individually throughout the study. All rats were fasted for 1 hour. Streptozotocin obtained from Sigma (98% HPLC) was administered by IV injection at a dose of 55-65 mg/kg in 0.1M citrate buffer (pH 4.5) followed by an additional 1 hour fast. Blood was collected daily from the tail and blood glucose levels were measured using an Accu-Chek® (Compact Plus-Roche) blood glucose monitor. When all animals in the group had achieved a blood glucose level of >250 mg/dl (5 days) the insulin metabolism phase was begun. All animals were fasted for 1 hour and a blood glucose measurement taken (T=0). Groups of rats were dosed by oral gavage with 0.5 mL of an aqueous preparation of insulin nanoparticles (containing 20 IU/mL of insulin) of example 9, or 0.5 mL of an aqueous solution of bovine insulin (20 IU/mL). The animals were then fasted for another hour and blood glucose levels were measured at 1, 4, 8 and 24 hours after dosing.

For “plain insulin formulation: aqueous solution of bovine insulin (20 IU/mL), oral comparator”, the “increase in blood glucose level (compared to T=0)” value runs as follows: (8 hours after dosing) 1%; (24 hours after dosing) 21%.
